Test results taken from US12643910B2, “Substituted pyrazolo[3,4-b]pyridines as ectonucleotide pyrophosphatase/phosphodiesterase 1 (ENPP1) modulators” (SANFORD BURNHAM PREBYS MEDICAL DISCOVERY INSTITUTE, priority 2019, dated 2026).

Tests used:
human ENPP1 = target: T1, human ENPP1 (Homo sapiens, UniProt P22413); assay: ENPP1 assay with ATP substrate (Transcreener AMP2/GMP2 TR-FRET); format: biochemical; settings: 1 hour at room temperature
T1 construct: made in house
T1 sequence (P22413 1-925): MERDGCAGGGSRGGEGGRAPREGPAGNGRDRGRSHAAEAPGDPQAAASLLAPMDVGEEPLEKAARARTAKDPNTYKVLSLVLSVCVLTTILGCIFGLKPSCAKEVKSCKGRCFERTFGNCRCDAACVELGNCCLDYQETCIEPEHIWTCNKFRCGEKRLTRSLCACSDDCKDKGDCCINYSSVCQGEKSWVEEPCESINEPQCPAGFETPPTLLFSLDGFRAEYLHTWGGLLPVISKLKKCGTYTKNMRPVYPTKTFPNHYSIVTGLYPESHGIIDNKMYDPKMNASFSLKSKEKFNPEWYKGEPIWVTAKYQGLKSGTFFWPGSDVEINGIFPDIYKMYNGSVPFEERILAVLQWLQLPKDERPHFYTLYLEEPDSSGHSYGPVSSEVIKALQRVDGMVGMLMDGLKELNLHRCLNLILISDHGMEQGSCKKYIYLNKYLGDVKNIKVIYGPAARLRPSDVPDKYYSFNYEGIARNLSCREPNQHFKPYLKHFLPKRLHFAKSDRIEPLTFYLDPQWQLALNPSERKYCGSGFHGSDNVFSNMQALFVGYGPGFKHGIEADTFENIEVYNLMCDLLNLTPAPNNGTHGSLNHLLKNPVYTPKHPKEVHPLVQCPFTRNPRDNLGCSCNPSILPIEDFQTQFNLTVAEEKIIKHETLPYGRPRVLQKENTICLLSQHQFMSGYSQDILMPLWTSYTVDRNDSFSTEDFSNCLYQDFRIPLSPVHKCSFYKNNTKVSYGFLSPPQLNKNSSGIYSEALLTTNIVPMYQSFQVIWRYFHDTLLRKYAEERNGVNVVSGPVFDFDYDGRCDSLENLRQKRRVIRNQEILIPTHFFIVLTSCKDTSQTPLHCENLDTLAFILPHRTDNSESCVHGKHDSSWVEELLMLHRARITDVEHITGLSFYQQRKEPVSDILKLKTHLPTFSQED
Source text: Example B1: ENPP1 Assay with ATP Substrate
Ectonucleotide pyrophosphatase/phosphodiesterase 1 (ENPP1) hydrolyzes ATP, breaking it down into 5′-AMP and pyrophosphate. The 5′-AMP formed from the reaction is detected by Transcreener® AMP2/GMP2 TR-FRET Assay (Bellbrook), containing AMP-tracer (HiLyte 647) and anti-AMP Terbium (Tb) donor. 5′-AMP generated in the reaction competes with AMP-tracer for binding with Anti-AMP Tb donor, and decreases TR-FRET signal.
Different concentrations of ENPP1 inhibitors are added to dry assay plate, followed by 2 μl 300 nM ATP. The reaction is initiated with the addition of 2 μl 8.5 μM human ENPP1 (generated by SBP Protein group). The assay reaction mixture contains a buffer of 50 mM Tris, pH 7.5, 1 mM TCEP, 2 mM MgCl2, 0.005% Tween 20, and 1% DMSO. The reaction is stopped after 1 hour at room temperature by adding 2 μL of 2 nM AMP-tracer and 2 μl of 2 nM Anti-AMP Tb donor in the 50 mM Tris, pH 7.5, buffer containing 20 mM EDTA and 0.1% Prionex. After 2 hour additional incubation at room temperature, the generated signal is measured using BMG Lab PHERASTAR instrument. 100% activity control samples (containing enzyme, substrate, buffer: MAX) and no enzyme control samples (containing substrate and buffer: MIN) are utilized to calculate percent inhibition (%) for each compound concentration well (COMPOUND) as follows.
The IC50 values are determined by fitting the inhibition curves with 2-parameter variable slope model in Graphpad Prism software using percent inhibition vs compound concentration data: […]

ENPP3 = target: T2, ENPP3 (Homo sapiens, UniProt O14638); assay: ENPP3 Km ATP assay; format: biochemical; settings: ATP at Km
T2 sequence (O14638 1-875): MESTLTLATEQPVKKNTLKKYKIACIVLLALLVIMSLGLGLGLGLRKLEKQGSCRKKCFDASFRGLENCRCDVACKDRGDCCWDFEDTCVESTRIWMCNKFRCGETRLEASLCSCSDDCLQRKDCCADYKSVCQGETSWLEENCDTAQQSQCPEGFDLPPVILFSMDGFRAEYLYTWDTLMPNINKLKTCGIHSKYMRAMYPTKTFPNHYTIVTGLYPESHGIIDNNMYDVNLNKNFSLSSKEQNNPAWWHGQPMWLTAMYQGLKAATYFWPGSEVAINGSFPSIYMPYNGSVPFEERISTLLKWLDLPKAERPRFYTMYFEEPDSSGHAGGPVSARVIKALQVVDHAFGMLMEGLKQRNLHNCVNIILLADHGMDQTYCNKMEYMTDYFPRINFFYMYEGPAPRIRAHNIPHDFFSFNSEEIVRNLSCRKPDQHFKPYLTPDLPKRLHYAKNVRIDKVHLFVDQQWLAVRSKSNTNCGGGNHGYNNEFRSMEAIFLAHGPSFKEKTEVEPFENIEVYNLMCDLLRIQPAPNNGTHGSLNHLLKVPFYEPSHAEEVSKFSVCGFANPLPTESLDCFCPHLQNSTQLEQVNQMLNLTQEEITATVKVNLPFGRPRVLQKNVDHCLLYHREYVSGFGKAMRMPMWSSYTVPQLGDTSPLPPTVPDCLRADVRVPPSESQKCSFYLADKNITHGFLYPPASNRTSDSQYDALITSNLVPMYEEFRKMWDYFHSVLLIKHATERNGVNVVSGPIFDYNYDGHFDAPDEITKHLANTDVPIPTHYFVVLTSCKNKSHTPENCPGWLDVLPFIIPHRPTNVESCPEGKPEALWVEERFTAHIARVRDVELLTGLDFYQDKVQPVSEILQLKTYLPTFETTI

Compound	IC50 (human ENPP1) [µM]	IC50 (ENPP3) [µM]
Cn1nnc2c(NCc3ccc(S(N)(=O)=O)cc3)ncnc21 [Example 2.58, 4-(((3-Methyl-3H-[1,2,3]triazolo[4,5-d]pyrimidin-7-yl)amino)methyl)benzenesulfonamide]	1 to 20	1 to 20
NS(=O)(=O)c1ccc(CNc2nc(NCCCO)nc3scc(-c4ccccc4)c23)cc1 [Example 1.51, 4-((2-(3-Hydroxypropyl)amino-5-phenylthieno[2,3-d]pyrimidin-4-yl)aminomethyl)-benzenesulfonamide]	< 0.1	< 0.1
Cc1csc2c(N3CCC(NC(=O)Cc4ccc(F)cc4)CC3)ncnc12 [Example 3.43, 2-(4-Fluorophenyl)-N-(1-(7-methylthieno[3,2-d]pyrimidin-4-yl)piperidin-4-yl)acetamide]	1 to 20	> 20
Cn1ncc2c(NCc3ccc(S(N)(=O)=O)cn3)cc(Cl)nc21 [Example 2.142, 6-(((6-Chloro-1-methyl-1H-pyrazolo[3,4-b]pyridin-4-yl)amino)methyl)pyridine-3-sulfonamide]	< 0.1	0.1 to 1
Cn1ncc2c(NCc3ccc(S(N)(=O)=O)cc3)cc(C3CC3)nc21 [Example 2.134, 4-((6-Cyclopropyl-1-methyl-1H-pyrazolo[3,4-b]pyridin-4-yl)aminomethyl)-benzenesulfonamide]	1 to 20	1 to 20
O=C(CCc1ccc(F)cc1)NC1CCN(c2ncnc3c(I)csc23)CC1 [Example 3.48, 3-(4-Fluorophenyl)-N-(1-(7-iodothieno[3,2-d]pyrimidin-4-yl)piperidin-4-yl)propanamide]	0.1 to 1	> 20
NS(=O)(=O)N1CCC(CNc2ncnc3scc(-c4ccccc4)c23)CC1 [Example 1.66, 4-(5-Phenylthieno[2,3-d]pyrimidin-4-yl)aminomethyl-1-piperidinesulfonamide]	0.1 to 1	1 to 20
Cc1csc2c(N3CCC(NCCCc4ccncc4F)CC3)ncnc12 [Example 3.40, N-(3-(3-Fluoropyridin-4-yl)propyl)-1-(7-methylthieno[3,2-d]pyrimidin-4-yl)piperidin-4-amine]	0.1 to 1	> 20
NS(=O)(=O)c1ccc(CNc2nc(-c3ccccc3)nc3scc(-c4ccccc4)c23)s1 [Example 1.27, 5-(((2,5-Diphenylthieno[2,3-d]pyrimidin-4-yl)amino)methyl)thiophene-2-sulfonamide]	1 to 20	> 20
Cc1csc2c(N3CCC(NCCCc4ccncc4)CC3)nc(-c3ccccn3)nc12 [Example 3.56, 1-(7-Methyl-2-(pyridin-2-yl)thieno[3,2-d]pyrimidin-4-yl)-N-(3-(pyridin-4-yl)propyl)piperidin-4-amine]	> 20	> 20
COc1cc(S(N)(=O)=O)ccc1CNc1ccnc2c1cnn2C [Example 2.63, 3-Methoxy-4-(((1-methyl-1H-pyrazolo[3,4-b]pyridin-4-yl)amino)methyl)benzenesulfonamide]	0.1 to 1	1 to 20
Cn1ncc2c(NCc3ccc(S(N)(=O)=O)cc3F)nc(Cl)nc21 [Example 2.140, 4-(((6-Chloro-1-methyl-1H-pyrazolo[3,4-d]pyrimidin-4-yl)amino)methyl)-3-fluorobenzenesulfonamide]	0.1 to 1	0.1 to 1
Fc1ccccc1CNc1nc(-c2ccccn2)nc2scc(-c3ccccc3)c12 [Example 1.8, (2-Fluoro-benzyl)-(5-phenyl-2-pyridin-2-yl-thieno[2,3-d]pyrimidin-4-yl)-amine]	> 20	> 20
Cc1cnccc1CCC(=O)NC1CCN(c2ncnc3c(C)csc23)CC1 [Example 3.34, 3-(3-Methylpyridin-4-yl)-N-(1-(7-methylthieno[3,2-d]pyrimidin-4-yl)piperidin-4-yl)propanamide]	> 20	> 20
NS(=O)(=O)c1ccc(CNc2ncnc3c2cnn3-c2ccccc2)cc1 [Example 2.38, 4-(((1-Phenyl-1H-pyrazolo[3,4-d]pyrimidin-4-yl)amino)methyl)benzenesulfonamide]	1 to 20	1 to 20
Cn1ncc2c(OCc3ccc(S(N)(=O)=O)cc3)ncnc21 [Example 2.137, 4-((1-Methyl-1H-pyrazolo[3,4-d]pyrimidin-4-yl)oxymethyl)benzenesulfonamide]	1 to 20	1 to 20
Clc1ccc(CNc2nc(-c3ccccn3)nc3scc(-c4ccccc4)c23)cc1 [Example 1.10, (4-Chloro-benzyl)-(5-phenyl-2-pyridin-2-yl-thieno[2,3-d]pyrimidin-4-yl)-amine]	> 20	> 20
CN(C)c1nc(NCc2ccc(S(N)(=O)=O)cc2)c2c(-c3ccccc3)csc2n1 [Example 1.43, 4-(((2-(Dimethylamino)-5-phenylthieno[2,3-d]pyrimidin-4-yl)amino)methyl)-benzenesulfonamide]	< 0.1	0.1 to 1
CNc1cc(NCc2ccc(S(N)(=O)=O)cc2)c2cnn(C)c2n1 [Example 2.76, 4-(((1-Methyl-6-(methylamino)-1H-pyrazolo[3,4-b]pyridin-4-yl)amino)methyl)-benzenesulfonamide]	1 to 20	0.1 to 1
CCNc1cc(NCc2ccc(S(N)(=O)=O)cc2)c2cnn(C)c2n1 [Example 2.75, 4-(((6-(Ethylamino)-1-methyl-1H-pyrazolo[3,4-b]pyridin-4-yl)amino)methyl)-benzenesulfonamide]	0.1 to 1	1 to 20
Cc1cccc(CCC(=O)NC2CCN(c3ncnc4c(C)csc34)CC2)c1 [Example 3.15, N-(1-(7-Methylthieno[3,2-d]pyrimidin-4-yl)piperidin-4-yl)-3-(m-tolyl)propanamide]	> 20	> 20
Cc1csc2c(N3CCN(CCCCc4ccncc4)CC3)ncnc12 [Example 3.7, 7-Methyl-4-(4-(4-(pyridin-4-yl)butyl)piperazin-1-yl)thieno[3,2-d]pyrimidine]	1 to 20	> 20
Fc1ccc(CCCNC2CCN(c3ncnc4ccsc34)CC2)cc1 [Example 3.47, N-(3-(4-Fluorophenyl)propyl)-1-(thieno[3,2-d]pyrimidin-4-yl)piperidin-4-amine]	1 to 20	> 20
